Measured values as given in article PMC8431557, “Multilevel Approach for the Treatment of Giardiasis by Targeting Arginine Deiminase” (International Journal of Molecular Sciences, 2021).

Assays:
[1] = target: T1, GlADI (giardial arginine deiminase) (Giardia duodenalis, UniProt E2RU36); test: residual activity after […] h preincubation, GlDH-coupled NADH assay; assay type: biochemical; design: gene GL50803_00112103; recombinant in pET28a(+), E. coli Rosetta 2 (DE3) pLysS; N-terminal His6 tag not cleaved; 580 residues; homodimer; 16 Cys per monomer; conditions: covalent (Cys modification); 2 h, pH 8.0, 25 °C
[2] = target: T1, GlADI (giardial arginine deiminase); design: gene GL50803_00112103; conditions: 8 mM L-arginine, pH 8.0, 25 °C
[3] = target: T1, GlADI (giardial arginine deiminase); test: residual activity after timed preincubation, GlDH-coupled NADH assay; slope of k1 vs concentration; assay type: biochemical; design: gene GL50803_00112103; recombinant in pET28a(+), E. coli Rosetta 2 (DE3) pLysS; N-terminal His6 tag not cleaved; 580 residues; homodimer; 16 Cys per monomer; conditions: covalent (Cys modification), second-order inactivation rate constant, pH 8.0, 25 °C

T1 sequence (E2RU36 entry or part of it): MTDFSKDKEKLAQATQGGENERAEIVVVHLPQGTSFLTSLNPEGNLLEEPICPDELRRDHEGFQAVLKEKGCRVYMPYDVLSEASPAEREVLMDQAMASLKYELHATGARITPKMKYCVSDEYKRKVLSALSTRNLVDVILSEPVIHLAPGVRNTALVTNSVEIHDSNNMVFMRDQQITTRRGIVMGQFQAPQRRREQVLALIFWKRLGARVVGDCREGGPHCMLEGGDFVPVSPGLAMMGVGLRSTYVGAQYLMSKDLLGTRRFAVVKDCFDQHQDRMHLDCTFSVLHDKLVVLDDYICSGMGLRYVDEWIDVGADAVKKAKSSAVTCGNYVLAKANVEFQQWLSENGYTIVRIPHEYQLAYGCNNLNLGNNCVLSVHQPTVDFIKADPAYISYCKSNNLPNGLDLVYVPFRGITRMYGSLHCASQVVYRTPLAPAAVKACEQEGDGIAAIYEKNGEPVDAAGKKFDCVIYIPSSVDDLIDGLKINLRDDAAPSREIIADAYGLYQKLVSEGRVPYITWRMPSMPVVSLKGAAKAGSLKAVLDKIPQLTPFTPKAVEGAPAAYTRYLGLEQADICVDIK

CC(=C(CCOC(=O)C(C)C)SSC(CCOC(=O)C(C)C)=C(C)N(C=O)Cc1cnc(C)nc1N)N(C=O)Cc1cnc(C)nc1N (stereo in doubt) [sulbutiamine]
residual activity (%) [1]: all of these drugs were able to inhibit recombinant GlADI in vitro in a dose-dependent manner

O=C(O)c1cc(SSc2ccc([N+](=O)[O-])c(C(=O)O)c2)ccc1[N+](=O)[O-] [DTNB, dithio-bis-nitrobenzoic acid]
residual activity (%) [1]: caused inactivation of the enzyme in a dose-dependent manner (Figure 1E,F)

N=C(N)NCCC[C@H](N)C(=O)O [L-arginine]
GlDH-coupled NADH oxidation at 340 nm [2]: monitoring the conversion of L-arginine to citrulline

CSS(C)(=O)=O [MMTS, s-methyl methanethiosulfonate]
k2 ([3]; 2.5-85 µM): 15.68 ± 0.9 M⁻¹ s⁻¹

COc1ccc2[nH]c([S+]([O-])Cc3ncc(C)c(OC)c3C)nc2c1 (stereo not drawn) [omeprazole]
residual activity (%) [1]: all of these drugs were able to inhibit recombinant GlADI in vitro in a dose-dependent manner

COCCCOc1ccnc(C[S+]([O-])c2nc3ccccc3[nH]2)c1C (stereo not drawn) [rabeprazole]
k2 ([3]; 5-110 µM): 6.72 ± 0.2 M⁻¹ s⁻¹
